Source: patent publication US8952024B2, “Herbicidal pyrimidone derivatives” (E I du Pont de Nemours and Company, priority 2009, dated 2015)
Where two headings read alike, the source gives them in different places.

Assays:
Format in all cases: in vivo
[1] = tested on: barnyardgrass (Echinochloa crus-galli); assay: Test A pre-/postemergence plant response; conditions: Echinochloa crus-galli, 240 h, read-out: Plant response rating, Barnyardgrass; for pest or weed control at 125 g/ha: 125 g ai/ha; for pest or weed control at 500 g/ha: 500 g ai/ha, approx. ten days
Method in brief: (§1)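 Each species was treated preemergence via directed soil spray and postemergence at the one- to two-leaf stage, with compounds formulated in a non-phytotoxic solvent plus surfactant. Visual injury relative to untreated controls was rated after about ten days on a 0–100 scale.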

corn (Zea mays) = assay: Test A pre-/postemergence plant response; conditions: Zea mays, 240 h; for Corn plant response rating (crop injury, 0 = no effect, 100 = complete kill) at 125 g/ha: 125 g ai/ha; for Corn plant response rating (crop injury, 0 = no effect, 100 = complete kill) at 500 g/ha: 500 g ai/ha, approx. ten days
Method in brief: as §1

[2] = tested on: giant foxtail (Setaria faberii); assay: Test A pre-/postemergence plant response; conditions: Setaria faberi, 240 h, read-out: Plant response rating, Foxtail, Giant; for pest or weed control at 125 g/ha: 125 g ai/ha; for pest or weed control at 500 g/ha: 500 g ai/ha, approx. ten days
Method in brief: as §1

[3] = tested on: large crabgrass (Digitaria sanguinalis); assay: Test A pre-/postemergence plant response; conditions: Digitaria sanguinalis, 240 h, read-out: Plant response rating, Crabgrass, Large; for pest or weed control at 125 g/ha: 125 g ai/ha; for pest or weed control at 500 g/ha: 500 g ai/ha, approx. ten days
Method in brief: as §1

[4] = tested on: morningglory (Ipomoea spp.); assay: Test A pre-/postemergence plant response; conditions: Ipomoea, 240 h, read-out: Plant response rating, Morningglory; for pest or weed control at 125 g/ha: 125 g ai/ha
Method in brief: as §1

[5] = tested on: pigweed (Amaranthus retroflexus); assay: Test A pre-/postemergence plant response; conditions: Amaranthus retroflexus, 240 h, read-out: Plant response rating, Pigweed; for pest or weed control at 125 g/ha: 125 g ai/ha; for pest or weed control at 500 g/ha: 500 g ai/ha, approx. ten days
Method in brief: as §1

[6] = tested on: velvetleaf (Abutilon theophrasti); assay: Test A pre-/postemergence plant response; conditions: Abutilon theophrasti, 240 h, read-out: Plant response rating, Velvetleaf; for pest or weed control at 125 g/ha: 125 g ai/ha; for pest or weed control at 500 g/ha: 500 g ai/ha, approx. ten days
Method in brief: as §1

[7] = tested on: wheat (Triticum aestivum); assay: Test A pre-/postemergence plant response; conditions: Triticum aestivum, 240 h, read-out: Plant response rating, Wheat; for plant injury at 125 g/ha: 125 g ai/ha; for plant injury at 500 g/ha: 500 g ai/ha, approx. ten days
Method in brief: as §1

[8] = tested on: windgrass (Apera spica-venti); assay: Test B postemergence plant response
Method in brief: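 Visual ratings from 0 (no effect) to 100 (complete control), made against controls 13–15 days after treatment, kept in a greenhouse. Compounds were applied postemergence to potted plants at the 1- to 4-leaf stage (2–18 cm).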

[9] = tested on: barnyardgrass (Echinochloa crus-galli); assay: Test B flooded paddy test
Method in brief: (§2)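 Greenhouse-held for 13 to 15 days, treated pots were compared visually with controls and scored 0–100 (0, no effect). Treatment had been made into paddy water kept at 3 cm above the soil, with plants at the 2-leaf stage.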

[10] = tested on: ducksalad (Heteranthera limosa); assay: Test B flooded paddy test
Method in brief: as §2

rice (Oryza sativa) = assay: Test B flooded paddy test
Method in brief: as §2

[11] = tested on: umbrella sedge (Cyperus difformis); assay: Test B flooded paddy test
Method in brief: as §2

[12] = post-emergence, Postemergence, 0 to 100 scale where 0 is no effect and 100 is complete control
[13] = post-emergence, Postemergence, 0 to 100 scale, 0 = no effect, 100 = complete control
[14] = pre-emergence, Preemergence, 0 to 100 scale, 0 = no effect, 100 = complete control
[15] = pre-emergence, Preemergence, visual injury, 0 to 100 scale (0 no effect, 100 complete control)
[16] = Flood, 31 g ai/ha, scale 0 to 100 (0 no effect, 100 complete control)

`O=C1CCCC(O)=C1C(=O)c1cnc(-c2ccccc2)n(C2CCCCC2)c1=O` [Compound 128, 3-cyclohexyl-5-[(2-hydroxy-6-oxo-1-cyclohexen-1-yl)carbonyl]-2-phenyl-4(3H)-pyrimidinone] gave a pest or weed control at 125 g/ha [1, 12] of 100%, a pest or weed control at 500 g/ha [1, 13] of 100% and a pest or weed control at 125 g/ha [1, 14] of 10%. For the same compound, the pest or weed control at 500 g/ha [1, 15] was 100%, the Corn plant response rating (crop injury, 0 = no effect, 100 = complete kill) at 125 g/ha (corn (Zea mays); [12]) was 20% and the Corn plant response rating (crop injury, 0 = no effect, 100 = complete kill) at 500 g/ha (corn (Zea mays); [13]) was 60%. For the same compound, the Corn plant response rating (crop injury, 0 = no effect, 100 = complete kill) at 125 g/ha (corn (Zea mays); [14]) was 0%, the Corn plant response rating (crop injury, 0 = no effect, 100 = complete kill) at 500 g/ha (corn (Zea mays); [15]) was 0% and the pest or weed control at 125 g/ha [2, 12] was 90%. The pest or weed control at 500 g/ha [2, 13] was 90%, the pest or weed control at 125 g/ha [2, 14] was 60% and the pest or weed control at 500 g/ha [2, 15] was 90%. For the same compound, the pest or weed control at 125 g/ha [3, 12] was 90%, the pest or weed control at 500 g/ha [3, 13] was 90% and the pest or weed control at 125 g/ha [3, 14] was 80%. For the same compound, the pest or weed control at 500 g/ha [3, 15] was 100%, the pest or weed control at 125 g/ha [4, 12] was 100% and the pest or weed control at 500 g/ha ([4]; post-emergence, Postemergence, 500 g ai/ha, 0 to 100 scale, 0 = no effect, 100 = complete control, approx. ten days) was 100%. For the same compound, the pest or weed control at 125 g/ha [4, 14] was 80%, the pest or weed control at 125 g/ha [5, 12] was 100% and the pest or weed control at 500 g/ha [5, 13] was 100%. The pest or weed control at 125 g/ha [5, 14] was 80%, the pest or weed control at 500 g/ha [5, 15] was 100% and the pest or weed control at 125 g/ha [6, 12] was 100%. For the same compound, the pest or weed control at 500 g/ha [6, 13] was 100%, the pest or weed control at 125 g/ha [6, 14] was 80% and the pest or weed control at 500 g/ha [6, 15] was 100%. The plant injury at 125 g/ha [7, 12] was 0%, the plant injury at 500 g/ha [7, 13] was 20% and the plant injury at 125 g/ha [7, 14] was 0%. For the same compound, the plant injury at 500 g/ha [7, 15] was 30%, the “Windgrass plant response rating (0 to 100 scale)” value ([8]; 62 g ai/ha, postemergence, 0 is no effect, 100 is complete control, 13 to 15 days) was 65 and the pest or weed control at 31 g/ha ([8]; Apera spica-venti, post-emergence, 360 h, Postemergence, 31 g ai/ha, 0 to 100 scale (0 no effect, 100 complete control), read-out: Plant response rating, Windgrass) was 50%. The pest or weed control at 125 g/ha ([8]; Apera spica-venti, post-emergence, 360 h, Postemergence, 125 g ai/ha, scale 0 to 100 (0 no effect, 100 complete control), read-out: Plant response rating, Windgrass) was 70%, the pest or weed control at 250 g/ha ([8]; Apera spica-venti, post-emergence, 360 h, Postemergence, 250 g ai/ha, scale 0 to 100 (0 no effect, 100 complete control), 13 to 15 days, read-out: Plant response rating, Windgrass) was 85% and the pest or weed control at 250 g/ha ([9]; Echinochloa crus-galli, 360 h, 250 g ai/ha, flooded paddy test, visual rating on 0 to 100 scale (0 no effect, 100 complete control) after 13 to 15 days, read-out: Plant response rating, Flood, Barnyardgrass) was 40%. The pest or weed control at 62 g/ha ([9]; Echinochloa crus-galli, 360 h, Flood (flooded paddy test), 62 g ai/ha, scale of 0 to 100 where 0 is no effect and 100 is complete control, 13 to 15 days, read-out: Plant response rating, Barnyardgrass) was 10%, the pest or weed control at 125 g/ha ([9]; Echinochloa crus-galli, 360 h, Flood (flooded paddy test), 125 g ai/ha, scale 0 to 100, 0 is no effect, 100 is complete control, 13 to 15 days, read-out: Plant response rating, Barnyardgrass) was 15% and the “Barnyardgrass plant response rating” value [9, 16] was 0. The “Ducksalad plant response rating” value [10, 16] was 90, the pest or weed control at 250 g/ha ([10]; Heteranthera limosa, 360 h, 250 g ai/ha, flooded paddy test, visual rating on 0 to 100 scale (0 no effect, 100 complete control) after 13 to 15 days, read-out: Plant response rating, Flood, Ducksalad) was 100% and the pest or weed control at 62 g/ha ([10]; Heteranthera limosa, 360 h, Flood (flooded paddy test), 62 g ai/ha, scale of 0 to 100 where 0 is no effect and 100 is complete control, 13 to 15 days, read-out: Plant response rating, Ducksalad) was 95%. For the same compound, the pest or weed control at 125 g/ha ([10]; Heteranthera limosa, 360 h, Flood (flooded paddy test), 125 g ai/ha, scale 0 to 100, 0 is no effect, 100 is complete control, 13 to 15 days, read-out: Plant response rating, Ducksalad) was 95%, the “Rice plant response rating” value (rice (Oryza sativa); [16]) was 0 and the plant injury at 250 g/ha (rice (Oryza sativa); Oryza sativa, 250 g ai/ha, flooded paddy test, visual rating on 0 to 100 scale (0 no effect, 100 complete control) after 13 to 15 days, read-out: Plant response rating, Flood, Rice) was 35%. The plant injury at 62 g/ha (rice (Oryza sativa); Oryza sativa, Flood (flooded paddy test), 62 g ai/ha, scale of 0 to 100 where 0 is no effect and 100 is complete control, 13 to 15 days, read-out: Plant response rating, Rice) was 0%, the plant injury at 125 g/ha (rice (Oryza sativa); Oryza sativa, Flood (flooded paddy test), 125 g ai/ha, scale 0 to 100, 0 is no effect, 100 is complete control, 13 to 15 days, read-out: Plant response rating, Rice) was 10% and the pest or weed control at 250 g/ha ([11]; Cyperus difformis, 360 h, 250 g ai/ha, flooded paddy test, visual rating on 0 to 100 scale (0 no effect, 100 complete control) after 13 to 15 days, read-out: Plant response rating, Flood, Sedge, Umbrella) was 75%. For the same compound, the pest or weed control at 62 g/ha ([11]; Cyperus difformis, 360 h, Flood (flooded paddy test), 62 g ai/ha, scale of 0 to 100 where 0 is no effect and 100 is complete control, 13 to 15 days, read-out: Plant response rating, Sedge, Umbrella) was 30%, the pest or weed control at 125 g/ha ([11]; Cyperus difformis, 360 h, Flood (flooded paddy test), 125 g ai/ha, scale 0 to 100, 0 is no effect, 100 is complete control, 13 to 15 days, read-out: Plant response rating, Sedge, Umbrella) was 60% and the “Sedge, Umbrella plant response rating” value [11, 16] was 0.
